Some test systems named below: HT29 colon; RXF 393 renal; UACC-62 melanoma; A498 renal; NCI-H460 lung; UO-31 renal; NCI/ADR-RES ovarian; LOX IMVI melanoma.
Holding throughout (experiment): NCI anticancer screen, dose series, 48 h

SMILES strings stand for the structures.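 Assay format: 96-well plates, 48-hour exposure. GI50: concentration for 50% inhibition of growth. TGI is the concentration that stops growth completely.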

On to `COc1cc(OC)c(F)c(COc2cnc(Nc3cnn(CCO)c3)nc2)c1F`, for which the GI50 in the assay on HT29 colon is 0.36 µM; in the assay on RXF 393 renal, 0.188 µM; in the assay with UACC-62 melanoma it was 0.518 µM; in the assay with A498 renal, under 0.0107 µM; in the assay on NCI-H460 lung, 0.444 µM; with UO-31 renal, 0.556 µM. For the same molecule, the GI50 in the assay on NCI/ADR-RES ovarian is 0.726 µM; in the assay with LOX IMVI melanoma it was 0.526 µM. The TGI with HT29 colon was 4.31 µM; with RXF 393 renal it was 2.44 µM; in the assay on UACC-62 melanoma, over 62 µM; with A498 renal, 0.138 µM; with NCI-H460 lung it was over 100 µM; in the assay with UO-31 renal it was over 20.5 µM. The results for the TGI with NCI/ADR-RES ovarian and in the assay with LOX IMVI melanoma were over 100 µM and over 22.6 µM, respectively.
Turning to `O=C(Oc1ccccc1Cl)c1ccccc1Nc1cccc(C(F)(F)F)c1`, the GI50 is 30 µM in the assay with HT29 colon; 13.9 µM with RXF 393 renal; 16.9 µM in the assay with UACC-62 melanoma; 24.8 µM in the assay with A498 renal; 37.3 µM in the assay with NCI-H460 lung; 30.9 µM in the assay on UO-31 renal. Besides, the GI50 was 19 µM in the assay with NCI/ADR-RES ovarian and 11.9 µM with LOX IMVI melanoma. For the same molecule, the TGI in the assay on HT29 colon is over 100 µM; with RXF 393 renal, 43.9 µM; in the assay on UACC-62 melanoma it was 42.9 µM; with A498 renal it was 54.8 µM; in the assay on NCI-H460 lung, over 100 µM; in the assay on UO-31 renal, over 100 µM. The results for the TGI in the assay with NCI/ADR-RES ovarian and in the assay with LOX IMVI melanoma were 44.4 µM and 33.5 µM, respectively.
`CCOc1cc2c(=O)oc3c(OC)ccc4ccc(c1OC)c2c43`: the TGI with HT29 colon, in the assay with RXF 393 renal, in the assay with UACC-62 melanoma, in the assay on A498 renal, with NCI-H460 lung and with UO-31 renal was over 100 µM throughout. The TGI in the assay on NCI/ADR-RES ovarian and with LOX IMVI melanoma was over 100 µM each time.
For `O=C(CCN1CCCC1)Nc1ccc2c(NCCc3ccccc3)c3ccccc3nc2c1`, the GI50 with HT29 colon was 0.368 µM; in the assay with RXF 393 renal, 0.51 µM; with UACC-62 melanoma it was 0.316 µM; in the assay with A498 renal, 0.422 µM; with NCI-H460 lung, 0.296 µM; in the assay with UO-31 renal it was 1.49 µM. The values for the GI50 with NCI/ADR-RES ovarian and in the assay on LOX IMVI melanoma were 12 µM and 0.305 µM, respectively. Also, the TGI in the assay on HT29 colon amounted to 1.75 µM; in the assay with RXF 393 renal, 1.75 µM; in the assay with UACC-62 melanoma, 1.13 µM; with A498 renal it was 1.8 µM; with NCI-H460 lung, 1.05 µM; in the assay on UO-31 renal it was 3.69 µM. For the same molecule, the TGI in the assay with NCI/ADR-RES ovarian was over 62.9 µM; in the assay on LOX IMVI melanoma, 1.22 µM.
Consider `COc1ccc(/C=N\NC(=O)c2ccc3nc(-c4ccc(Cl)cc4)[nH]c3c2)cc1`, for which the GI50 is 3.09 µM in the assay with HT29 colon; 1.86 µM in the assay on RXF 393 renal; 1.94 µM with UACC-62 melanoma; 2.45 µM in the assay with A498 renal; 1.83 µM in the assay with NCI-H460 lung; 1.86 µM in the assay with UO-31 renal. In addition, the results for the GI50 with NCI/ADR-RES ovarian and in the assay with LOX IMVI melanoma were 7.81 µM and 2.19 µM, respectively. Also, the TGI turned out to be 22.1 µM in the assay on HT29 colon; 3.8 µM in the assay with RXF 393 renal; 4.47 µM in the assay on UACC-62 melanoma; 9.87 µM in the assay on A498 renal; 3.59 µM with NCI-H460 lung; 6.38 µM in the assay on UO-31 renal. For the same molecule, the values for the TGI in the assay on NCI/ADR-RES ovarian and in the assay on LOX IMVI melanoma were over 100 µM and 4.01 µM, respectively.
`O=c1c2c(=NCCN3CCCC3)cc3c(=O)n(CCCN4CCOCC4)c(=O)c4ccc(c(O)n1CCCN1CCOCC1)c2c4-3`: the GI50 in the assay with HT29 colon was under 0.0181 µM; in the assay on RXF 393 renal it was 0.104 µM; in the assay on UACC-62 melanoma, 0.35 µM; with A498 renal it was 0.173 µM; with NCI-H460 lung, 0.0791 µM; in the assay on NCI/ADR-RES ovarian it was 0.166 µM. The GI50 in the assay on LOX IMVI melanoma was 0.192 µM. Further, the TGI with HT29 colon amounted to 1.04 µM; in the assay on RXF 393 renal, 0.266 µM; in the assay with UACC-62 melanoma, 0.966 µM; in the assay with A498 renal, 0.981 µM; in the assay on NCI-H460 lung, 1.08 µM; in the assay on NCI/ADR-RES ovarian it was 12 µM. For the same molecule, the TGI with LOX IMVI melanoma stood at 0.443 µM.
On to `CC(=O)Nc1ccc(-c2csc(Nc3cccc(-c4csc(-c5ccccc5)n4)c3)n2)cc1`, for which the GI50 in the assay on RXF 393 renal is 13.7 µM; in the assay with UACC-62 melanoma, 4.7 µM; with A498 renal, 46 µM; in the assay on NCI-H460 lung, 18.8 µM; in the assay with UO-31 renal, 16.7 µM; in the assay on NCI/ADR-RES ovarian, 17.5 µM. The GI50 with LOX IMVI melanoma was 7.71 µM. Besides, the TGI in the assay on RXF 393 renal was 39.6 µM; in the assay with UACC-62 melanoma, 14.9 µM; with A498 renal, over 50 µM; in the assay on NCI-H460 lung, over 50 µM; in the assay on UO-31 renal, over 50 µM; in the assay with NCI/ADR-RES ovarian it was over 50 µM. For the same molecule, the TGI in the assay with LOX IMVI melanoma is 18.1 µM.
For `COc1cc2cnc(-c3ccccc3)cc2cc1OC`, the TGI in the assay with HT29 colon was 45.5 µM; in the assay with RXF 393 renal, over 100 µM; in the assay with UACC-62 melanoma, 23.4 µM; in the assay with A498 renal, 21.2 µM; in the assay on NCI-H460 lung it was over 100 µM; in the assay with UO-31 renal it was over 100 µM. This molecule displayed a TGI in the assay on NCI/ADR-RES ovarian of 73.6 µM.
Regarding `Cc1ccc(-c2cc(-c3ccc(C)cc3)nc(N3CCN(CCNc4ccnc5cc(Cl)ccc45)CC3)n2)cc1`, the GI50 in the assay with HT29 colon was 1.51 µM; with RXF 393 renal it was 1.45 µM; in the assay with UACC-62 melanoma, 5.54 µM; with A498 renal it was 9.69 µM; with NCI-H460 lung, 2.21 µM; with UO-31 renal, 1.16 µM. The GI50 in the assay with NCI/ADR-RES ovarian is 2.53 µM; in the assay with LOX IMVI melanoma, 1.82 µM. Besides, the TGI in the assay with HT29 colon was 7.26 µM; in the assay on RXF 393 renal, 7.36 µM; in the assay with UACC-62 melanoma it was 12.6 µM; with A498 renal, 30.4 µM; in the assay with NCI-H460 lung it was 9.2 µM; in the assay with UO-31 renal it was 5.53 µM. For the same molecule, the TGI is 11.1 µM with NCI/ADR-RES ovarian and 6.07 µM with LOX IMVI melanoma.
As to `Cc1cc(NCc2cc(Nc3ccnc4cc(Cl)ccc34)ccc2F)nc(N2CCSCC2)n1`, the GI50 in the assay with HT29 colon was 1.77 µM; in the assay with RXF 393 renal, 1.52 µM; in the assay on A498 renal, 2.18 µM; with UO-31 renal, 1.38 µM; with NCI/ADR-RES ovarian, 1.55 µM; with LOX IMVI melanoma it was 1.47 µM. Moreover, the TGI in the assay on HT29 colon worked out at 4.37 µM; in the assay with RXF 393 renal it was 3.35 µM; in the assay with A498 renal it was 10.4 µM; in the assay on UO-31 renal, 2.87 µM; in the assay with NCI/ADR-RES ovarian, 4.02 µM; in the assay on LOX IMVI melanoma it was 2.79 µM.

(Values after PubChem BioAssay (NCI).)
